Laboratory results taken from patent US20190017999A1, “IN VITRO SKIN IMMUNE SYSTEM SIMULATION SYSTEM” (Seoul National University R&DB Foudation, priority 2015, published 2019).
“Also recorded” adds a separate entry of the source.

Columns and labels:
Format in all cases: cell-based, human
[1] = test system: blood vessels and pericytes (HUVEC-pericyte co-culture); test: Response of co-cultured blood vessels and pericytes to added factors; conditions: factor added to blood vessel-pericyte co-culture of Example 5; compared to control group (FIG. 13)
microvessels (HUVEC) = test: Microvessel permeability coefficient by time-lapse FITC-dextran imaging; conditions: 5 ng/ml TNF-α over 24 h
Protocol: (§1) Human umbilical vein endothelial cells (HUVEC, Lonza) were cultured in endothelial cell growth medium (EGM-2, Lonza). Normal human lung fibroblasts (LF, Lonza) were cultured in fibroblast growth medium (FGM-2, Lonza). Human glioblastoma cells (U87MG, ATCC, Virginia) were cultured in DMEM medium supplemented with 10% fetal bovine serum (FBS), penicillin (100 U/ml) and streptomycin (100 U/ml). MDA-MA-231 cells were purchased from the ATCC (Manassas, Va.). MDA-MB-231 cells were transfected with a pEGFP plasmid, and cells were selected using 1 mg/ml G418 (A.G. scientific, Inc.). […]
To quantify the success rate of the smooth and continuous boundary of microvessels, the length of the vessel boundary was measured, and compared with the straight-line length of the blood vessel channel along the microvessel by use of image J. When the boundary length value was within ±10% of the linear length of the vascular channel, the chip was regarded as success. […] The acquired time-lapse image was analyzed using Image J, and the permeability coefficient was calculated using Equation 1 below: […]
The present inventors introduced 20 kDa FITC-dextran solution into the microvessel to verify the patency of the lumen, and visualized the behavior of the lumen using fluorescence microscopy. […] The present inventors analyzed the junctions by fluorescent immunostaining for claudin-5 and ZO-1 (FIGS. 3C and 3D). […]

VE-cadherin = VE-cadherin immunostaining of cell-cell junctions in microvessels; conditions: 5 ng/ml TNF-α-treated microvessels versus control microvessels (FIG. 5B)
Protocol: as §1
For microvascular DIC (Differential Interference Contrast Microscope) imaging, the Nikon AE31 microscope was used. […] Confocal images were analyzed using IMARIS software (Bitplane, Switzerland). For fluorescence imaging, FITC-dextran-injected samples were imaged using the IX81 inverted microscope (Olympus).
As a vessel to assess the transendothelial migration of MDA-MB-231 cancer cells, the microvessel obtained in the present invention was used. […] The number of cancer cells intravasated into the microvessels was manually counted. […] In addition, the effect of TNF-α on cancer cell intravasation was analyzed. the rate of intravasation with or without TNF-α treatment was compared (n=7 chips per condition). […]

[2] = test system: MDA-MB-231 cancer cells intravasating into microvessels; test: Cancer intravasation assay in microfluidic chip
Protocol: as §1, with “Inc.). MDA-MA-231 GFP cells obtained from monoclones were incubated in RPMI1640 (WELGENE, Korea) supplemented with 10% fetal bovine serum, 1% penicillin/streptomycin (Gibco, BRL) and 250 μg/ml G418 (A.G. scientific, Inc.).” for “Inc.).”
(§2) For the quantification of cancer angiogenesis, sprout area and the number of sprouts were manually quantified by using Image J. For quantification of cancer intravasation, the microvessels were stained with CD31 and fluorescence imaged, and cancer cells at the apical side of the microvessel were manually counted using the IMARIS software.
As a vessel to assess the transendothelial migration of MDA-MB-231 cancer cells, the microvessel obtained in the present invention was used. […] The number of cancer cells intravasated into the microvessels was manually counted. […]

[3] = test system: HUVEC microvessels with U87MG cells; test: Cancer angiogenesis assay in microfluidic chip (angiogenic sprouting from microvessels induced by U87MG cells); conditions: bevacizumab 500 μg/ml
Protocol: Human umbilical vein endothelial cells (HUVEC, Lonza) were cultured in endothelial cell growth medium (EGM-2, Lonza). Normal human lung fibroblasts (LF, Lonza) were cultured in fibroblast growth medium (FGM-2, Lonza). Human glioblastoma cells (U87MG, ATCC, Virginia) were cultured in DMEM medium supplemented with 10% fetal bovine serum (FBS), penicillin (100 U/ml) and streptomycin (100 U/ml). MDA-MA-231 cells were purchased from the ATCC (Manassas, Va.). MDA-MB-231 cells were transfected with a pEGFP plasmid, and cells were selected using 1 mg/ml G418 (A.G. scientific, Inc.). MDA-MA-231 GFP cells obtained from monoclones were incubated in RPMI1640 (WELGENE, Korea) supplemented with 10% fetal bovine serum, 1% penicillin/streptomycin (Gibco, BRL) and 250 μg/ml G418 (A.G. scientific, Inc.). All cells were incubated in a humidified incubator at 37° C. under 5% CO2. For immunostaining, endothelial cells were imaged using mouse monoclonal antibodies specific for human ZO-1 (Alexa Fluor594, clone ZO1-1A12, molecular probe), CD31 ([…], clone WM59, Biolegends), VE-cadherin (eBioscience) and claudin-5 (Invitrogen), and the nucleus was stained with Hoechst 33342 (molecular probe). Bevacizumab (Avastin, Genentech) was diluted to 500 μg/ml, and microvessels introduced with cancer were treated with the dilution in cancer angiogenesis experiments. Recombinant human TNF-alpha (PetroTech) was diluted to 5 ng/ml, and microvessels were treated with the dilution at 24 hours before introduction of cancer. […]
as §2
The present inventors analyzed the angiogenic potential of cancer cells by using the microvessels having a smooth vessel wall. […]

[4] = 3 days after introduction of U87MG cells, versus U87MG without bevacizumab

| Molecule | response of pericytes and blood vessels [1] | permeability of TNF-α-treated microvessels (microvessels (HUVEC); mean±standard error, n=5 chips) | permeability relative to normal condition (microvessels (HUVEC); versus normal condition) [fold] | VE-cadherin junction morphology (VE-cadherin) | rate of cancer intravasation relative to control ([2]; 5 ng/ml TNF-α 24 hours before introduction of MDA-MB-231 cells, n=7 chips per condition) [fold] | rate of cancer intravasation (in words) ([2]; TNF-α-treated microvessels compared with control experiment, p<0.0005) | coverage area of sprouts [3, 4] | number of sprouts [3, 4] | microvascular sprouts / vessel boundary in micrographs ([3]; microscopic images 3 days after injection of cancer cells (FIG. 4A)) |
| --- | --- | --- | --- | --- | --- | --- | --- | --- | --- |
| TNF-α | pericytes sprouted out from the blood vessels and formed many filopodia | 2.22±0.67×10^−6 cm/s | 1.4 | disrupted and pleated form; also recorded: disrupted continuity and wrinkled morphology | 3 | very high rate of cancer intravasation |  |  |  |
| bevacizumab: anti-vascular endothelial growth factor (anti-VEGF) antibody, Avastin, Genentech |  |  |  |  |  |  | significantly reduced; also recorded: drastically decreasing | significantly reduced; also recorded: drastically decreasing | greatly reduced; also recorded: flat boundary without angiogenic sprouts |
| IL-1a: typical factor occurring in the peritumoral environment and inflammatory conditions (protein, UniProt P01583 113-271, looked up) Interleukin-1 alpha: SAPFSFLSNVKYNFMRIIKYEFILNDALNQSIIRANDQYLTAAALHNLDEAVKFDMGAYKSSKDDAKITVILRISKTQLYVTAQDEDQPVLLKEMPEIPKTITGSETNLLFFWETHGTKNYFTSVAHPNLFIATKQDYWVCLAGGPPSITDFQILENQA | pericytes sprouted out from the blood vessels and formed many filopodia |  |  |  |  |  |  |  |  |
